Measurements from patent publication US5112615A, “Soluble hirudin conjugates” (New England Deaconess Hospital Corporation, priority 1990, dated 1992).

How the values were obtained:
[1] = target: thrombin (Homo sapiens, UniProt P00734); assay: Kinetic evaluation of thrombin inhibition (Lineweaver-Burke and Dixon plot analyses); format: biochemical
Source text: Using a known amount of thrombin, a standard curve is constructed with known amount of hirudin or hirudin analog by adding hirudin to thrombin, and measuring residual thrombin activity using […] substrate S-2238. Thrombin inhibition by derivatized hirudin (hirudin-SPDP) or immobilized hirudin (the polyethylene terphthalate material with immobilized hirudin) is then compared to nonderivatized hirudin values by equating ED50 values using 10 NIH units/ml thrombin, and measuring residual thrombin activity.
Peak 3 conjugate material (shown in FIG. 4C and lane A in FIG. 5A) is evaluated by kinetic analysis. Kinetic evaluation of the ability of the peak 3 conjugate to inhibit thrombin activity is compared to hirudin alone. […] These determinations are made by Lineweaver-Burke and Dixon plot analyses. The inhibitor constant for hirudin is determined to be 1.7×10^-12. The inhibitor constant for the conjugate is 1.8×10^-11. There is a 10-fold loss in binding affinity when comparing the Ki values of hirudin to the conjugate, respectively. In a biologic or physiologic system, the different abilities of hirudin and conjugate to inhibit thrombin are insignificant.

[2] = system: thrombin-mediated platelet aggregation; assay: Inhibition of thrombin-mediated platelet aggregation and simultaneous ATP release (whole blood platelet aggregometer); format: cell-based; conditions: Thrombin 0.1 NIHU
Source text: Investigation of the biologic activity of hirudin covalently linked to albumin is examined by inhibiting thrombin-mediated platelet aggregation. A whole blood platelet aggregometer (Chronolog Corp., Havertown, PA) is used to measure platelet aggregation and simultaneous ATP release. Platelet aggregation is selected to quantify inhibition of thrombin events other than fibrin formation.

[3] = system: blood; assay: Thrombin time of blood containing inhibitor; conditions: 0.2 ATU/ml blood sample
Description: In addition, hirudin conjugated to a stable, soluble molecule increases hirudin stability in the bloodstream. For example, 0.1 anti-thrombin units (ATU) of hirudin conjugate standard/ml of blood increases normal thrombin time to 45 seconds. A blood sample containing 0.2 ATU of unconjugated hirudin/ml increases patient thrombin time to 90 seconds. Using this knowledge, the amount of hirudin in a patient's plasma can be calculated to be 0.15 ATU if the patient's thrombin time is determined to be 68 seconds.

hirudin
type of inhibition [1]: noncompetitive inhibitor of a linear mixed type | % Inh. ATP Release ([2]; inhibitor 0.12 ATU): 56% | % Inh. Plate. Aggreg. ([2]; inhibitor 0.12 ATU): 52% | ATP Release ([2]; inhibitor 0.12 ATU): 0.60 µM | Aggreg. OHMS/6 min. ([2]; inhibitor 0.12 ATU): 15.7 OHMS/6 min. | % Inh. ATP Release ([2]; inhibitor 1.15 ATU): 100% | % Inh. Plate. Aggreg. ([2]; inhibitor 1.15 ATU): 100% | ATP Release ([2]; inhibitor 1.15 ATU): 0 µM | Aggreg. OHMS/6 min. ([2]; inhibitor 1.15 ATU): 0 OHMS/6 min. | thrombin time [3]: 90 s
